In one data set the test system is resting lymphocytes. Briefly: Cellular content/efflux of TH9402 by flow cytometry, resting lymphocytes. Format: cell-based, human. On the procedure:
TH9402 cellular content in resting and activated lymphocytes was evaluated by flow-cytometry, since the intensity of TH9402 (green) fluorescence correlates with the cellular content in TH9402. Briefly, 10^6 cells/ml, previously activated or not with PHA, were incubated in X-vivo-5 medium supplemented with 2.5% human AB serum and 10 μM TH9402 for 40 minutes. These cells were washed two times with X-vivo medium supplemented with 10% AB serum and cells analysed by flow cytometry 30, 50, 70, 90 and 110 min after the end of the TH9402 incorporation period. […] Since cellular concentration of TH9402 correlates with the extent of cell elimination, the high concentration of TH9402 maintained in activated lymphocytes explains their sensitivity to photodynamic therapy. In contrast, the rapid efflux of TH9402 from resting lymphocytes should explain preservation of their proliferative activity.
In order to identify the mechanism responsible for the differential retention of TH9402 between activated and resting lymphocytes, cyclosporin-A was used to block the multidrug transporter (P-gp 170). These cells were incubated with 10 μM TH9402 for 8 minutes, and washed with medium containing 1 μg/ml cyclosporin-A or medium alone. TH9402 retention was subsequently evaluated by flow-cytometry (green fluorescence) (FIG. 5). […] The functional impairment of such a pump in activated lymphocytes could explain the high levels of phototoxicity observed in these cells.
In general terms: Flow cytometry measures light scatter and fluorescence of single cells or particles in a stream.

Data set [1] relates to CEM T cell acute lymphoblastic leukemia cell line. Briefly: Phototoxicity of TH9402, limiting dilution assay of clonogenic cells, CEM admixed with irradiated PBMC. The format is cell-based. Conditions: 10 μM TH9402 40 min, 90 min dye-free, 5 joules/cm^2, LDA 12-14 days. On the procedure:
T cells represent the most important population of immune cells present in the peripheral blood. […] Phototoxicity was also evaluated in parallel against the chronic myelogenous leukemia cell line K562, that had been used in U.S. Pat. Nos. 5,556,992 and 5,773,460. The CEM T cell acute lymphoblastic leukemia cell line and K562 chronic myelogeneous leukemia cell line (Lozzio, B. B. and Lozzio, C. B. (1979) Cancer Res., 3(6): 363-370) were obtained from the American Type Culture Collection (ATCC, 12301 Parklawn Drive, Rockville, Md. 20852 USA) under the accession number CCL-119 and CCL-243. Cultures were maintained at 37° C. in a humidified incubator with an atmosphere of 95% air and 5% CO2. […] Before each experiment, cell viability was assessed by trypan blue exclusion. […]
To assess the photochemotherapeutic potential and the in vitro phototoxicity of 4,5-dibromorhodamine 123 hydrobromide (TH9402), the T cell line CEM and the leukemic line K562 admixed with normal irradiated PBMC were incubated with TH9402 and exposed to 5 joules/cm^2 of light (as described above). […] Growth at each serial dilution was assessed in an “all-or-nothing” (positive or negative) fashion under an inverted phase microscope. […]

Data set [2] concerns non-lymphoid hematopoietic progenitors (CFU-GM, BFU-E, CFU-GEMM). In words: Clonogenic assay of hematopoietic progenitors in methylcellulose after PDT. Format: cell-based, human. Conditions: same conditions of PDT as for B cells. Here is the method:
To evaluate the potential of PDT with TH9402 to eliminate other immune cell populations, normal human B cells were used as targets. Mononuclear cells from normal donors were obtained by leukopheresis, and resuspended at 20 million cells per ml during the whole PDT process. Cells were centrifuged and resuspended in pre-warmed (37° C.) X-Vivo-15 medium supplemented with 2.5% FCS and 10 U/ml heparin, with 5 μM TH9402. After 40 minutes of incubation at 37° C., cells were washed and resuspended in a X-Vivo-15 medium and 10% FCS with 10 U/ml heparin (medium free of TH9402) for an efflux period of 50 minutes before exposure to light energy (10 to 30 Joules/cm^2). Cells underwent light exposure at 20 million cells per ml and at a thickness of 2 cm.
To verify that the treatment preserved normal hematopoetic progenitors, we have used a clonogenic assay to measure the amount of hematopoetic clonogenic precursors present in the same samples. […]
Normal human mononuclear cells were obtained and subjected to various PDP conditions to determine the efficacy of eradication of B cells, specificity and safety of the procedure. […] In contrast, when these cells were evaluated for the elimination of non-lymphoid hematopoietic progenitors, usually less than 50% (half of a logarithm) of these progenitors were eliminated by the same conditions of PDT (FIG. 7B). […]

The record followed here is patent US8802082B2, “Rhodamine derivatives for photodynamic diagnosis and treatment” (Université de Montreal, priority 1999, dated 2014).

Structures are written as SMILES.

In the case of `Br.COC(=O)c1ccccc1-c1c2ccc(=N)c(Br)c-2oc2c(Br)c(N)ccc12` [TH9402, 4,5-dibromorhodamine 123 (2-(4,5-dibromo-6-amino-3-imino-3H-xanthen-9-yl)-benzoic acid methyl ester) hydrobromide], the “cells demonstrating low TH9402 fluorescence” value in the data set with resting lymphocytes (10 μM TH9402 40 min, 110 minutes after the end of the incorporation period) was “approximately 50%”. Moreover, the “TH9402 retention with cyclosporin A versus medium alone, resting lymphocytes” value with resting lymphocytes (10 μM TH9402, wash with 1 μg/ml cyclosporin-A, 110 minutes) is “higher retention”. Moreover, in the data set with resting lymphocytes (all time-points evaluated (30-110 min)), the “intensity of TH9402 fluorescence, resting versus activated lymphocytes” value is on record as “less for resting lymphocytes than for activated lymphocytes”. Further, the “CEM cells escaping elimination by phototherapy in comparison to the media only sample” value in data set [1] is reported as “less than 0.1%”. In addition, in data set [2], the “non-lymphoid hematopoietic progenitors eliminated” value is recorded as “less than 50%”.
